According to patent publication US8859543B2, “Imidazo[1,2-a]pyrazine derivatives and their use for the prevention or treatment of neurological, psychiatric and metabolic disorders and diseases” (Janssen Pharmaceutica NV, priority 2010, dated 2014):
Where two headings read alike, the source gives them in different places. One block for each compound: values may come before it.

Legend:
[1] = system: scopolamine induced memory deficit; assay: Object recognition test (scopolamine induced memory deficit); format: in vivo, rat; settings: rats
Protocol: They were kept under a 12/12-hour light/dark cycle (lights on from 19.00 to 7.00 h) and had free access to food and water. […] A radio, which was playing softly, provided background noise in the room. […] The apparatus consisted of a circular arena, 83 cm in diameter. […] The light intensity was equal in the different parts of the apparatus, as fluorescent red tubes provided a constant illumination of about 20 lux on the floor of the apparatus. […] Each object was available in triplicate. Four different sets of objects were used. A testing session consisted of two trials. […] During the first trial (T1) the apparatus contained two identical objects (samples). Rats were placed in the apparatus facing the wall at the middle of the front (transparent) segment. After the first exploration period the rat was put back in its home cage. […] Exploration was defined as follows: directing the nose to the object at a distance of no more than 2 cm and/or touching the object with the nose. Sitting on the object was not considered as exploratory behavior.

[2] = target: T1, Rat recombinant PDE10A (rPDE10A2) (Rattus norvegicus, UniProt Q9QYJ6); assay: In vitro assay PDE10A (SPA, 3H-cAMP); format: biochemical
T1 construct: made in house; host or cells: Sf9 insect cells, baculovirus
T1 sequence (Q9QYJ6 1-794): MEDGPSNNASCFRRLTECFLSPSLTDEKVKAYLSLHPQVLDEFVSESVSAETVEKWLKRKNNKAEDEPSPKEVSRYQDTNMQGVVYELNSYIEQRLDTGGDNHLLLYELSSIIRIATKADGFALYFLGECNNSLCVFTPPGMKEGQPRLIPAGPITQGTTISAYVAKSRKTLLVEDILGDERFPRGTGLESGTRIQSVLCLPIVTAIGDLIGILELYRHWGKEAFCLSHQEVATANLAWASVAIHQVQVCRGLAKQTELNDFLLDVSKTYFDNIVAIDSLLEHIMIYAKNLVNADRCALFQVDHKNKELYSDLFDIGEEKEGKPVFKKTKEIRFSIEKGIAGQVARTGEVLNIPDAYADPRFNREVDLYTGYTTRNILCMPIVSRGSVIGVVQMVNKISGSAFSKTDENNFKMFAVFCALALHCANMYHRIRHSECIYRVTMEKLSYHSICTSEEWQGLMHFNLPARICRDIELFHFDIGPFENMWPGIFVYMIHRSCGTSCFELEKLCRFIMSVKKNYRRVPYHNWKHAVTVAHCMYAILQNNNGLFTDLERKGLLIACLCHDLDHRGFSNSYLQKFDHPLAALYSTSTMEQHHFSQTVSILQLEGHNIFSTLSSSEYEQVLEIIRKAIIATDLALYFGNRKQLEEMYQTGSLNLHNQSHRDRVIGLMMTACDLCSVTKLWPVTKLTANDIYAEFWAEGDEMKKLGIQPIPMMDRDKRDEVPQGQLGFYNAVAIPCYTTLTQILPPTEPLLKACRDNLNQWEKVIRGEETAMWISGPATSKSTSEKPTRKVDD
Summary of the method: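 Purified Sf9-expressed rat PDE10A2 incubated 60 min at RT with 60 nM cAMP plus 0.008 μCi 3H-cAMP in 50 mM Tris pH 7.8, 8.3 mM MgCl2, 1.7 mM EGTA, 1% DMSO final. Product quantified by scintillation proximity counting against no-enzyme blanks and DMSO controls.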

[3] = target: T2, PDE10 (Rattus norvegicus, UniProt Q9QYJ6); assay: PDE10 occupancy ([3H]-MP-10, striatum); format: in vivo; settings: administered s.c.; for ED50: rat, sc, occupancy, read-out: Occ. ED50
T2 construct: from tissue; host or cells: rat brain sections, striatum (ex vivo autoradiography after in vivo dosing)
T2 sequence (Q9QYJ6 1-794): T1 sequence (Q9QYJ6 1-794)
Protocol: Dose-response or single dose experiments were performed to measure PDE10 occupancy 1 hour after subcutaneous (s.c.) or oral (p.o.) administration. Male Wistar rats (200 g) were treated by s.c. or p.o. administration of various PDE10 inhibitors. The PDE10 radioligand [^3H]-MP-10 (10 μCi/animal) was injected intravenously (i.v.) 30 minutes before sacrifice. Brains were immediately removed from the skull and rapidly frozen. Twenty μm-thick brain sections were cut using a cryostat-microtome, thaw-mounted on microscope slides and loaded in a β-imager to quantify PDE10 occupancy in the striatum.

[4] = system: PCP-induced hyperlocomotion; assay: PCP-induced hyperlocomotion in rats (PCP); format: in vivo; settings: Rattus norvegicus
[5] = system: apomorphine-induced stereotypy; assay: Apomorphine-induced stereotypy in rats (APO); format: in vivo; settings: Rattus norvegicus
Protocol: Apomorphine-Induced Stereotypy in Rats (APO)
Apomorphine (1.0 mg/kg, i.v.)-induced stereotypy (compulsive sniffing, licking, chewing) was scored every 5 min. over the first hour after injection of apomorphine, following a 1 hour interval pre-treatment with the test compound. The score system was: (3) pronounced, (2) moderate, (1) slight, and (O) absent.

[6] = target: PDE9A (Homo sapiens, UniProt O76083); assay: In vitro PDE selectivity assay, PDE9A; format: biochemical
Chain of PDE9A (O76083 whole entry): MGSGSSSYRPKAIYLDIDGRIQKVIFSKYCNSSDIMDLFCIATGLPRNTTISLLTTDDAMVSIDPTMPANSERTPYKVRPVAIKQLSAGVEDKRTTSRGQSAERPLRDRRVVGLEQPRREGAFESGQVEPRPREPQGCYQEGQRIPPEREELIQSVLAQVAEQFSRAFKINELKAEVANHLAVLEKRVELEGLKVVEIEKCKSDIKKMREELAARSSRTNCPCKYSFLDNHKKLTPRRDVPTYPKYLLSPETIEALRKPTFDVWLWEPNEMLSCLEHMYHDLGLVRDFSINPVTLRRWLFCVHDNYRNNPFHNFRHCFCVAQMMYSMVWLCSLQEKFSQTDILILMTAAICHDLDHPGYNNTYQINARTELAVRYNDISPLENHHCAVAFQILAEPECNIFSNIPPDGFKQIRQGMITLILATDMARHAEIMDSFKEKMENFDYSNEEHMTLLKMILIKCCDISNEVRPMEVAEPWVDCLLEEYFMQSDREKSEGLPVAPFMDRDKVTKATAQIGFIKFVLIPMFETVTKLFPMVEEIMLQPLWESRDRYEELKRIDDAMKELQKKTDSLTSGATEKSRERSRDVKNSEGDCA
Protocol: (§1) Rat recombinant PDE10A (rPDE10A2) was expressed in Sf9 cells using a recombinant rPDE10A baculovirus construct. Cells were harvested after 48 h of infection and the rPDE10A protein was purified by metal chelate chromatography on Ni-sepharose 6FF. […] The reaction was incubated for 60 min. at RT. […] After sedimentation of the beads during 30 min. the radioactivity was measured in a Perkin Elmer Topcount scintillation counter and results were expressed as cpm. For blank values the enzyme was omitted from the reaction and replaced by incubation buffer. […] The same assay principle is applied for the measurement of the affinity of the compound for other members of the PDE family with appropriate modifications in incubation buffer, substrate concentration, incubation time and stop solution.

[7] = system: conditioned avoidance response; assay: Conditioned avoidance response (CAR) test; format: in vivo; settings: Rattus norvegicus
Excerpt: Conditioned Avoidance Response (CAR) Test
The apparatus consisted of an inner box surrounded by an outer box. The inner box was composed of four walls of transparent, synthetic material (length×width×height: 30×30×30 cm), an open top, and a grid floor made of 15 pairs of iron bars (2 mm diameter; 6 mm inter-bar distance). Odd and even bars were connected with a source of alternative current (1.0 mA; Coulbourn Instruments Solid State Shocker/Distributor), which could be interrupted by a switch. The outer box was composed of the same material (length×width×height: 40×40×36 cm), also with an open top, with a distance of 5 cm between the inner and outer box on all sides. To decrease the amount of environmental stimuli, three walls of the outer box were made non-transparent. The front wall was left transparent to allow the necessary inspection of the animal during the test. The upper edge of the outer and inner box served as a target for the rats on which to jump with fore- and hind-paws, respectively.
From their arrival in the laboratory on the experimental day, male Wiga Wistar rats (230±30 g) were housed in individual cages provided with bedding material.
The rats were tested 3 times, i.e. at 60, 90 and 120 min after the injection of test compound or solvent. Latency to avoidance was recorded. The median avoidance response obtained over the three experimental sessions for each rat were used for further calculations.

[8] = target: PDE2A (Homo sapiens, UniProt O00408); assay: In vitro PDE selectivity assay, PDE2A; format: biochemical
Chain of PDE2A (O00408 whole entry, species assumed): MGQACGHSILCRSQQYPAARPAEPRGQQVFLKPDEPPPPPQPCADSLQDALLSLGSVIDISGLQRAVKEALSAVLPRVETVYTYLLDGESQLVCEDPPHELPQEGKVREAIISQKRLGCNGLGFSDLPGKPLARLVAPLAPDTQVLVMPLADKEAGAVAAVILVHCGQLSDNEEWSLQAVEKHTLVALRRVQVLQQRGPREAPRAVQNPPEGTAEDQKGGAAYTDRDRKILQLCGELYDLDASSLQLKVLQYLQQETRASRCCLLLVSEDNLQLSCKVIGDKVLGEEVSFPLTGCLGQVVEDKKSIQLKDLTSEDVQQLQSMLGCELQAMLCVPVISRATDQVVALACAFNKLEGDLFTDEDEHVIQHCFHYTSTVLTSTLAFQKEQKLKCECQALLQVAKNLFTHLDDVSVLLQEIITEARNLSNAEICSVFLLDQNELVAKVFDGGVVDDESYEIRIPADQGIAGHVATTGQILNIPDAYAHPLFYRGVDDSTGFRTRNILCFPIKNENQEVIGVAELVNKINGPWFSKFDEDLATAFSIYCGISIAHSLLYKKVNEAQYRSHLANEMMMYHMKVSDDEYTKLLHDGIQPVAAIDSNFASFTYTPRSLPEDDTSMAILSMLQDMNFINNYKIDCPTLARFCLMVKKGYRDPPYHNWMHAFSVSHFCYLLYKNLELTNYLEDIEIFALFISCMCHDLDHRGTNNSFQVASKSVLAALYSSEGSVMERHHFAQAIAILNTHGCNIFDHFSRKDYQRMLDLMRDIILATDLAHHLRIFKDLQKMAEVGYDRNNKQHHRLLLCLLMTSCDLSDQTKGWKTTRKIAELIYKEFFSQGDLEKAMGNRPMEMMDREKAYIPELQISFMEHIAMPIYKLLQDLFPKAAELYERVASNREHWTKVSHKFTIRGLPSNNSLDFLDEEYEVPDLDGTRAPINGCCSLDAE
Protocol: as §1

[9] = target: PDE3A (Homo sapiens, UniProt Q14432); assay: In vitro PDE selectivity assay, PDE3A; format: biochemical; settings: Table 4a in vitro selectivity; read-out: IC50 PDE type 3A
Chain of PDE3A (Q14432 whole entry): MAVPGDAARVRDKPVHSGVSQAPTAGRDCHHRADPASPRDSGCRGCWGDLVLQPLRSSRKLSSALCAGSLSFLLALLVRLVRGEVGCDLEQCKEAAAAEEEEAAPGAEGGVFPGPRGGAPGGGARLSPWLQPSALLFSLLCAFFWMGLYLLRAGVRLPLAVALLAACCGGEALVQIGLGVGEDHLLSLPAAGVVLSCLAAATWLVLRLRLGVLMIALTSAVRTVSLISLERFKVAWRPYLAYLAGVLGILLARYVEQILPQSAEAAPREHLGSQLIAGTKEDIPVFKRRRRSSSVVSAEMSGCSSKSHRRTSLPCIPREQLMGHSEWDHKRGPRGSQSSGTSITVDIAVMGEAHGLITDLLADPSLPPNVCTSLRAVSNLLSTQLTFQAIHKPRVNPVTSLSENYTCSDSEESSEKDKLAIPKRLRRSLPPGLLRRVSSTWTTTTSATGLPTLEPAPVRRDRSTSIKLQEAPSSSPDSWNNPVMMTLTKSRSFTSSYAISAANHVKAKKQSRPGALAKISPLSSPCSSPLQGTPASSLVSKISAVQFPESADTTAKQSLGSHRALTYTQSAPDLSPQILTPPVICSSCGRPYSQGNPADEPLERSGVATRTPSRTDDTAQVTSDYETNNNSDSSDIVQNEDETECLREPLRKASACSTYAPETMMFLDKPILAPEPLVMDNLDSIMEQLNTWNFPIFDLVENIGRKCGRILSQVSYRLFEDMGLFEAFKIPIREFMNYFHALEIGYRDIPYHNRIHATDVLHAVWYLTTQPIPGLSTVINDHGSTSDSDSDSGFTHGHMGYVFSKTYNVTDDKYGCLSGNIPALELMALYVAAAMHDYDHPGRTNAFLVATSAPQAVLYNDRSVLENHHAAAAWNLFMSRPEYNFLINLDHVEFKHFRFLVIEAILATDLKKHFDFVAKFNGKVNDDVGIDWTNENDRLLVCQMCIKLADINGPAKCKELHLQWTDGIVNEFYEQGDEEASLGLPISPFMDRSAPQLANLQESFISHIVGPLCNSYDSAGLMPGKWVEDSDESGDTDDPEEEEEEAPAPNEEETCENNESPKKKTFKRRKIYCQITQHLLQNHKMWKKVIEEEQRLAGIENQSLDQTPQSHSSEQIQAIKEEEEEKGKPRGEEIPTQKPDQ
Protocol: as §1

[10] = target: PDE7A (Homo sapiens, UniProt Q13946); assay: In vitro PDE selectivity assay, PDE7A; format: biochemical; settings: Table 4a in vitro selectivity; read-out: IC50 PDE type 7A
Protocol: as §1

[11] = target: PDE4D (Homo sapiens, UniProt Q08499); assay: In vitro PDE selectivity assay, PDE4D; format: biochemical; settings: Table 4a in vitro selectivity; read-out: IC50 PDE type 4D
Chain of PDE4D (Q08499 whole entry, species assumed): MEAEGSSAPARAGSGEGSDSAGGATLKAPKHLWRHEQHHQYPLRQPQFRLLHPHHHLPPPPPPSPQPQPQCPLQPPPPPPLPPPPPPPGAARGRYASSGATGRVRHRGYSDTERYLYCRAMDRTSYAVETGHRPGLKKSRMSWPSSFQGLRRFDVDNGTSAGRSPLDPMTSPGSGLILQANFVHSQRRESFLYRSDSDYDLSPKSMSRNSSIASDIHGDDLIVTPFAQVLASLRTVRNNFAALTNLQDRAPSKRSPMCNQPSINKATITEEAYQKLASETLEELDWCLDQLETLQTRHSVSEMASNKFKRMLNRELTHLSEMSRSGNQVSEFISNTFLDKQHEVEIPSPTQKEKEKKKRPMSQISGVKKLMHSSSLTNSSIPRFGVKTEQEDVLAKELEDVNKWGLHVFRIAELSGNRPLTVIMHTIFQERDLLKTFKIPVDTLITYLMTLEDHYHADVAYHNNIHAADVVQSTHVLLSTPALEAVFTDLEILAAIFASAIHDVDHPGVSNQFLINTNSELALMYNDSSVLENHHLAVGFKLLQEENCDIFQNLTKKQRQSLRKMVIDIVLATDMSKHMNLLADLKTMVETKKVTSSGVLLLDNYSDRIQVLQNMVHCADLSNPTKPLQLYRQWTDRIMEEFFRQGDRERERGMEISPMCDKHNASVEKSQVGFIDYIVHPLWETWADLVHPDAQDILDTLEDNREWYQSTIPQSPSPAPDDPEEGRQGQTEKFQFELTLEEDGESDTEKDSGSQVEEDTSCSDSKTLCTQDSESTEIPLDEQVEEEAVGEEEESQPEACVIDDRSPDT
Protocol: as §1

[12] = target: PDE11A (Homo sapiens, UniProt Q9HCR9); assay: In vitro PDE selectivity assay, PDE11A; format: biochemical; settings: Table 4a in vitro selectivity; read-out: IC50 PDE type 11A
Chain of PDE11A (Q9HCR9 whole entry, species assumed): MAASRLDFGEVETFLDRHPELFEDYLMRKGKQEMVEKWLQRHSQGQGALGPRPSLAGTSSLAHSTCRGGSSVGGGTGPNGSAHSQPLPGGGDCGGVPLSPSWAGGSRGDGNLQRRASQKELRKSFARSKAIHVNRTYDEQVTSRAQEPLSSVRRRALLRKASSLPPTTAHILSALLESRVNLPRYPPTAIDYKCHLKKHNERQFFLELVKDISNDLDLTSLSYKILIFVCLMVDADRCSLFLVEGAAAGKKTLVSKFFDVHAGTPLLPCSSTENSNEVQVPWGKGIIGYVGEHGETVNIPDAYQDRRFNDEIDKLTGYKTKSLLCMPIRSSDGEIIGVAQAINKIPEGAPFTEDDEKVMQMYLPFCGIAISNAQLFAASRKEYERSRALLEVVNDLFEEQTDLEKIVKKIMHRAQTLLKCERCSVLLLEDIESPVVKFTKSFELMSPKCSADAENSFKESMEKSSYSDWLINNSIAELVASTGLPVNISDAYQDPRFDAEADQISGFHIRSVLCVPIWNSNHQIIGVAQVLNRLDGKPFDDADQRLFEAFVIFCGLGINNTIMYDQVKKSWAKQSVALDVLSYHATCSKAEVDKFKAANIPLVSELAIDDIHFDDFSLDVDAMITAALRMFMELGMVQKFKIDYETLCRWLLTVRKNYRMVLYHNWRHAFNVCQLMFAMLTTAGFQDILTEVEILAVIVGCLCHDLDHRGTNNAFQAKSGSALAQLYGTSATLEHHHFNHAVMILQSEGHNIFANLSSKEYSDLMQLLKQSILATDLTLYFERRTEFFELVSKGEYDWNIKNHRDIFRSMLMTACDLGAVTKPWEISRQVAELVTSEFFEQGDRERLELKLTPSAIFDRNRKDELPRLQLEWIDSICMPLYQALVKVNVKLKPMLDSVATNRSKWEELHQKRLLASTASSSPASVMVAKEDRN
Protocol: as §1

[13] = target: PDE1B (Homo sapiens, UniProt Q01064); assay: In vitro PDE selectivity assay, PDE1B; format: biochemical; settings: Table 4a in vitro selectivity; read-out: IC50 PDE type 1B
Chain of PDE1B (Q01064 whole entry): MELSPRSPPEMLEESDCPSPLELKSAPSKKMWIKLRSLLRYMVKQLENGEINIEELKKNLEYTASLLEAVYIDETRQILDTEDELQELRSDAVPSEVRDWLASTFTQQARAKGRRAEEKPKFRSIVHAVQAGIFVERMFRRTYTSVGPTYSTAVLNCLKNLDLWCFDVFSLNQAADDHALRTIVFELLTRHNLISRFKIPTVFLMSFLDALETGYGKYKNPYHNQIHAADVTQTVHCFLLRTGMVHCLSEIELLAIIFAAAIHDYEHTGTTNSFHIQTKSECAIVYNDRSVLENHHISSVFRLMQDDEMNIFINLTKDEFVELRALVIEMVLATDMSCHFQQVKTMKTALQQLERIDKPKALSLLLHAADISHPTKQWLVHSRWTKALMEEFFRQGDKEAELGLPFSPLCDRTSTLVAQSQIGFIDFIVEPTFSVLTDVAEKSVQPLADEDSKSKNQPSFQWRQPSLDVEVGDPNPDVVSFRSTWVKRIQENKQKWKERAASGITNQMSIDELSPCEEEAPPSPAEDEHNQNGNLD
Protocol: as §1

[14] = target: PDE5A (Homo sapiens, UniProt O76074); assay: In vitro PDE selectivity assay, PDE5A; format: biochemical; settings: Table 4a in vitro selectivity; read-out: IC50 PDE type 5A
Protocol: as §1

[15] = pIC50 corresponds to the -log IC50 expressed in mol/L, read-out: PDE10A2 pIC50 (converted)

SMILES: COc1cc2ncnc(N3CC[C@@H](Oc4cnc5ccccc5n4)C3)c2cc1OC [PQ10, 6,7-dimethoxy-4-[3(R)-(quinoxalin-2-yloxy)pyrrolidin-1-yl]quinazoline]
- index of discrimination (d2), mean ([1]; 1 mg/kg p.o. + Scop. 0.1 mg/kg, 1 h delay): 0.27
- discrimination compared to the vehicle/scopolamine condition (post-hoc analysis) ([1]; 1 mg/kg p.o. + scopolamine): significantly better discrimination

SMILES: COC(C)(C)Cn1cc(-c2c(C)nc3c(N4CCOCC4)nccn23)cn1 [compound 72]
- IC50 [2, 15]: 95.5 nM
- ED50 [3]: 6.4 mg/kg
- ED50 [4]: 2 mg/kg
- ED50 ([5]; read-out: APO ED50): 1.2 mg/kg

SMILES: COC(C)(C)Cn1cc(-c2c(C)nc3c(-c4ccncc4)nccn23)cn1 [compound 78]
- IC50 [2, 15]: 105 nM
- % Occ. at 10 mg/kg [3]: 76%
- Selectivity PDE9 ([6]; in vitro selectivity towards PDE10A versus PDE9): >10-100 fold, except 78 (<10 fold selectivity)
- ED50 ([5]; read-out: APO ED50): 1.2 mg/kg

SMILES: COCCc1ccc(-c2c(C)nc3c(N4CCOCC4)nccn23)cn1 [compound 16, 3-[6-(2-Methoxy-ethyl)-pyridin-3-yl]-2-methyl-8-morpholin-4-yl-imidazo[1,2-a]pyrazine]
- ED50 [7]: 2 mg/kg
- ED50 [4]: 1.54 mg/kg
- ED50 ([5]; read-out: APO ED50): 1 mg/kg

SMILES: Cc1nc2c(N3CCOCC3)nccn2c1-c1cnn(CC2CC2(F)F)c1 (stereo not drawn) [compound 52]
- IC50 [2, 15]: 52.5 nM
- ED50 [3]: 5.5 mg/kg
- ED50 [4]: ≤ 10 mg/kg
- ED50 ([5]; read-out: APO ED50): 3.1 mg/kg

SMILES: Cc1nc2c(N3CCOCC3)nccn2c1-c1cnn(CC(C)C)c1 [compound 97]
- ED50 [7]: 12.3 mg/kg
- ED50 [4]: 5.4 mg/kg
- ED50 ([5]; read-out: APO ED50): 2 mg/kg

SMILES: CO[C@@H](C)Cn1cc(-c2c(C)nc3c(N4CCOCC4)nccn23)cn1 [compound 57]
- PDE10A2 pIC50 ([2]; pIC50 corresponds to the -log IC50 expressed in mol/L): 7.22
- ED50 [3]: 8 mg/kg
- ED50 [7]: 5 mg/kg
- ED50 ([5]; read-out: APO ED50): 1.2 mg/kg

SMILES: Cc1nc2c(-c3ccncc3)nccn2c1-c1cnn(CC(C)C)c1 [compound 69]
- IC50 [2, 15]: 89.1 nM
- % Occ. at 10 mg/kg [3]: 67%
- ED50 [4]: 2 mg/kg
- ED50 ([5]; read-out: APO ED50): 5 mg/kg

SMILES: COCCc1ncc(-c2c(C)nc3c(N4CCOCC4)nccn23)cn1 [compound 33, 3-[2-(2-Methoxy-ethyl)-pyrimidin-5-yl]-2-methyl-8-morpholin-4-yl-imidazo[1,2-a]pyrazine]
- IC50 ([2]; Table 4a in vitro selectivity, read-out: IC50 PDE type 10A): 500 nM
- IC50 [2, 15]: 148 nM
- IC50 ([8]; Table 4a in vitro selectivity, read-out: IC50 PDE type 2A): > 10000 nM
- IC50 [9]: > 10000 nM
- IC50 [10]: > 10000 nM
- IC50 [11]: > 10000 nM
- IC50 ([6]; Table 4a in vitro selectivity, read-out: IC50 PDE type 9A): > 10000 nM
- IC50 [12]: > 10000 nM
- IC50 [13]: 2950 nM
- ED50 ([5]; read-out: APO ED50): 0.8 mg/kg
- IC50 [14]: > 10000 nM

- IC50 [2, 15]: 324 nM
SMILES: c1cn2c(-c3cnn(CC4CC4)c3)cnc2c(N2CCOCC2)n1 [compound 119]
- Selectivity PDE2A ([8]; in vitro selectivity towards PDE10A versus PDE2A): ≧10 fold, except compound 119 (>3.02 fold selectivity)
- ED50 ([5]; not active at 2.5 or at 10 mg/kg, not further tested, read-out: APO ED50 (not active at threshold dose)): > 2.5 mg/kg
